We go through 4 compounds from article PMC2424174, “Suppression of Tumor Growth and Angiogenesis by a Specific Antagonist of the Cell-Surface Expressed Nucleolin” (PLoS ONE, 2008).

Data set [1] can be described thus: Blood cell count in tumor bearing mice. The class given is in vivo, mouse. As to conditions: 3 times/week, 8 weeks. On the procedure:
(§1) Figure 8 HB-19 inhibits tumor growth in the nude mice. (A) HB-19 inhibits the growth of MDA-MB-231 tumor-cell xenografts. Cells (2×10^6) were injected subcutaneously into the right flank of female nude mice. Two weeks later, mice with a palpable tumor of approximately 40 mm^3 in volume were randomly separated into three groups (n = 5) and were given peritumoral injections 3 times/week of 0.1 ml PBS alone (Control), HB-19 (5 mg/kg), or Tamoxifen (Tmx) 10 mg/kg) for 6 weeks. (B) HB-19 inhibits the growth of MDA-MB-435 tumor-cell xenografts. Cells (1×10^6) were injected in the mammary fat pad of female nude mice. Two weeks later, mice with a palpable tumor were randomly separated into three groups (n = 10) and were given intraperitoneal injections 3 times/week of 0.1 ml PBS alone (Control), HB-19 (5 mg/kg), or 5-fluouracil (5-FU, 40 mg/kg) for 8 weeks. At the end of each experiment (in A and B), mice were sacrificed and the tumors were excised and weighed. The results are presented as the mean weight ±standard deviation (±S.D.) obtained from the number of mice in each group. (C, D) Inhibition of tumor development in mice treated by intraperitoneal (i.p.) and subcutaneous (s.c.) administration of HB-19. MDA-MB-231 tumor bearing mice in three groups (n = 10) were treated with HB-19 (10 mg/kg) by i.p. or s.c. injections, 3 times/week for 28 days. […] Statistical significance: *p<0.05, **p<0.01, ***p<0.001.
Blood samples were collected by cardiac puncture. Hematocrit level, white blood cells and platelets count were determined individually in whole blood anticoagulated with EDTA (1 mM) at room temperature. Blood cell count was analyzed with an automated flow cytometric blood cell counter (Cell-Dyn 3500, Abbott Laboratories, Rungis, France).

The test system of data set [2] is MDA-MB-435 tumor-cell xenografts. Briefly: MDA-MB-435 xenograft in nude mice. The class given is in vivo, human. Conditions: 5-FU 40 mg/kg, intraperitoneal, 3 times/week, 8 weeks, n = 10. On the procedure: Figure 8 HB-19 inhibits tumor growth in the nude mice. (A) HB-19 inhibits the growth of MDA-MB-231 tumor-cell xenografts. Cells (2×10^6) were injected subcutaneously into the right flank of female nude mice. Two weeks later, mice with a palpable tumor of approximately 40 mm^3 in volume were randomly separated into three groups (n = 5) and were given peritumoral injections 3 times/week of 0.1 ml PBS alone (Control), HB-19 (5 mg/kg), or Tamoxifen (Tmx) 10 mg/kg) for 6 weeks. (B) HB-19 inhibits the growth of MDA-MB-435 tumor-cell xenografts. Cells (1×10^6) were injected in the mammary fat pad of female nude mice. Two weeks later, mice with a palpable tumor were randomly separated into three groups (n = 10) and were given intraperitoneal injections 3 times/week of 0.1 ml PBS alone (Control), HB-19 (5 mg/kg), or 5-fluouracil (5-FU, 40 mg/kg) for 8 weeks. At the end of each experiment (in A and B), mice were sacrificed and the tumors were excised and weighed. The results are presented as the mean weight ±standard deviation (±S.D.) obtained from the number of mice in each group. (C, D) Inhibition of tumor development in mice treated by intraperitoneal (i.p.) and subcutaneous (s.c.) administration of HB-19. MDA-MB-231 tumor bearing mice in three groups (n = 10) were treated with HB-19 (10 mg/kg) by i.p. or s.c. injections, 3 times/week for 28 days. […]
On the technique in general: Xenograft models place foreign cells or tissue in a host animal.

The test system of data set [3] is CD31 endothelial marker in tumors. Briefly: Tumor vascularization, CD31 immunohistochemistry. Conditions: CD31 staining; HB-19 5 mg/kg or 5-FU 40 mg/kg, intraperitoneal, 8 weeks; compared to untreated tumors. Type of data set: in vivo, mouse. As for the experimental part:
Figure 9 Reduced density of blood vessels in HB-19 treated tumor-bearing mice. Sections of tumors recovered from mice, untreated control and treated with either HB-19 or 5-FU (experiment described in Figure 8B) were stained with antibodies against the CD31 endothelial marker and analyzed by fluorescence microscopy. […] Angiogenesis was quantified by image analysis of CD31-labeled endothelial cells.
Immediately after surgical resection, tumors, were frozen in liquid nitrogen and fixed for 20 min in acetone at 4°C or fixed with 4% PFA for paraffin inclusion. The sections of 8 µm were re-hydrated and saturated in PBS containing 1% BSA and 2% normal goat serum. To visualize tumor endothelial cells, sections were incubated with a Rat anti-mouse CD31 monoclonal antibody (1∶50) in saturation buffer 1 hour at room temperature. After two washes in PBS, sections were incubated for 1 hour at room temperature with biotinylated goat anti-Rat IgG (1∶1000 dilution; Chemicon International Inc., Temecula, CA) in saturation buffer, followed by three washes in PBS and incubation with the avidin-biotinylated-alkaline phosphatase complex (Vector Laboratories). […] Angiogenesis was quantified by Image analysis of CD31-labeled endothelial cells. The EC density in each field was expressed as the ratio of EC area/total area examined ×100 (%). […]

Data set [4] deals with surface nucleolin. Briefly: Complex of HB-19/Btn with surface nucleolin, MDA-MB-231 cells, avidin-agarose and immunoblot. The class given is binding, human. As to conditions: 45 min, 20°C, 0-12 µM HB-19/Btn. On the procedure: Figure 2 HB-19 binds nucleolin expressed on the surface of tumor cells and causes reduction of cytoplasmic/surface but not nuclear nucleolin. (A) HB-19/Btn forms a stable complex with nucleolin expressed on the surface of cells. MDA-MB-231 cells were incubated (45 min, 20°C) with 0, 1, 2, 4, 8 and 12 µM of HB-19/Btn before preparation of surface/cytoplasmic (i.e., nucleus-free) and nuclear extracts, [28]. Samples of surface nucleolin (purified using surface/cytoplasmic extracts from 2×10^7 cells) and crude surface/cytoplasmic and nuclear extracts (from 2×10^6 cells) were analyzed by immunoblotting for the detection of nucleolin using mAb D3. (B) Specific reduction of surface/cytoplasmic nucleolin in HB-19 treated cells. […] Material from 2×10^6 cells (Untreated or HB-19 treated cells as indicated − or + signs, respectively) was analyzed by immunoblotting for the detection of nucleolin. […] The intensity of nucleolin protein bands quantified by using the NIH image software indicated 75% and 93% reduction of surface/cytoplasmic nucleolin in HB-19 treated cells at 24 and 48 hours, respectively, compared to the corresponding untreated cells. […] MDA-MB-231 cells cultured in the absence (Control Cells) or presence of 10 µM of HB-19 for 48 hours (HB-19 Treated Cells) were fixed in PFA-Triton and processed for fluorescence microscopy. […]
For orientation: A western blot detects proteins with antibodies after separation by electrophoresis.

Data set [5] deals with surface nucleolin. Briefly: Complex of HB-19/Btn with surface nucleolin, HUVECs, avidin-agarose and immunoblot. Type of data set: binding, human. Conditions: 45 min, 20°C, 0-12 µM HB-19/Btn. On the procedure: Figure 3 Specific binding and entry of HB-19 in endothelial cells. (A) HB-19/Btn forms a stable complex with nucleolin expressed on the surface of HUVECs. Cells were incubated (45 min, 20°C) with 0, 1, 2, 4, 8 and 12 µM of HB-19/Btn before preparation of surface/cytoplasmic and nuclear extracts and recovery of surface nucleolin from the surface/cytoplasmic extracts as in Figure 2A. Material extracted from 2×10^7 and 2×10^6 cells was analyzed in panels Surface and Surface/Cytoplasm or Nucleus, respectively. Immunoblotting was with the anti-nucleolin mAb D3. (B) The specific binding of HB-19/Btn to HUVECs. The binding of 1 µM HB-19/Btn was studied at 4 °C by FACScan analysis. To show the specificity of binding, the reaction was carried out in the absence or presence of 50 µM HB-19, F3, or 9Arg peptides. The ordinate gives the relative cell number, whereas the abscissa gives the relative fluorescence intensity. (C) HB-19 entry in HUVECs. Cells were incubated with 5 µM of HB-19/Btn (1 hour, 37°C) before fixation in PFA (for surface binding) or PFA-Triton (for entry), respectively. […]
Cells were passaged in DMEM culture medium containing 10% FCS in 75 cm^2 flasks. […] The purified surface nucleolin was eluted in the electrophoresis sample buffer containing SDS and analyzed by SDS–polyacrylamide gel electrophoresis (PAGE).

In data set [6] the test system is MDA-MB-231 tumor-cell xenografts. As to the kind of experiment: MDA-MB-231 xenograft in nude mice. Conditions: tamoxifen 10 mg/kg, peritumoral, 3 times/week, 6 weeks, n = 5. Type of data set: in vivo, human. On the procedure: as §1
Data set [7] has as its system cells (surface nucleolin). As to conditions: cited from earlier work. From the text:
The importance of cell-surface nucleolin in cancer biology is highlighted by many studies showing that ligands of nucleolin play critical role in tumorigenesis and angiogenesis, [16]. For example, among surface nucleolin binding growth factors: midkine and PTN can transform cells, whereas on endothelial cells they exert both mitogenic and angiogenic effect. Laminin-1 that induces differentiation of cells binds surface nucleolin, while urokinase that is implicated in mechanisms regulating pericellular proteolysis, cell-surface adhesion, and mitogenesis binds and is co-internaliz ... || Previously, guanosine-rich phosphodiester oligonucleotides (referred to as GROs) and endostatin have been reported to exert antitumoral and antiangiogenic activity, respectively, through interaction with surface nucleolin [21], [41], [42]. […] At 20°C, GRO ...

Data set [8] deals with nucleolin. Conditions: cited from earlier work. The text has this: HB-19 presents pentavalently the tripeptide Kψ(CH2N)PR in which the reduced peptide bond provides high stability against serum proteases (Figure 1). HB-19 forms a stable complex with the cell-surface expressed nucleolin and is internalized by an active process. This le ... || The interaction of HB-19 with surface nucleolin was investigated using human breast cancer MDA-MB-231 tumor cells and human umbilical vein endothelial cells (HUVECs). […] Similarly, HB-19/Btn binds and forms a stable complex with surface nucleolin in a dose-dependent manner in both types of cell ... || Previously, guanosine-rich phosphodiester oligonucleotides (referred to as GROs) and endostatin have been reported to exert antitumoral and antiangiogenic activity, respectively, through interaction with surface nucleolin [21], [41], [42]. […] At 20°C, GRO ... || (+ 1 further places)

For data set [9], the system named is tumor cells. As to conditions: cited from earlier work. On the procedure:
(§2) Previously, guanosine-rich phosphodiester oligonucleotides (referred to as GROs) and endostatin have been reported to exert antitumoral and antiangiogenic activity, respectively, through interaction with surface nucleolin [21], [41], [42]. […] At 20°C, GRO ...

The test system of data set [10] is nuclear nucleolin. Conditions: cited from earlier work. As for the experimental part: as §2

Marks after values point to notes of the source that are not given here.

Take `O=c1[nH]cc(F)c(=O)[nH]1` [5-FU, 5-fluouracil]: in [1] (5-FU 40 mg/kg, intraperitoneal), the leucopenia entry is “toxic causing a significant degree of leucopenia” and the “reduction in the number of lymphocytes” value came to 55%. Further, the Eosinophils in [1] (HB-19 5 mg/kg or 5-FU 40 mg/kg i.p., mean ± SD, n = 10, untreated 0.01±0.02) was 0.05±0.04 ×10^3/µl. Besides, the Basophils in [1] (HB-19 5 mg/kg or 5-FU 40 mg/kg i.p., mean ± SD, n = 10, untreated 0.10±0.06) is reported as 0.10±0.04 ×10^3/µl. Besides, the Monocytes in [1] (HB-19 5 mg/kg or 5-FU 40 mg/kg i.p., mean ± SD, n = 10, untreated 0.20±0.09) is 0.22±0.09 ×10^3/µl. For the same compound, the Neutrophils in data set [1] (HB-19 5 mg/kg or 5-FU 40 mg/kg i.p., mean ± SD, n = 10, untreated 0.89±0.39, 5-FU p<0.05) was 0.53±0.15 * ×10^3/µl. Also, in data set [1] (HB-19 5 mg/kg or 5-FU 40 mg/kg i.p., mean ± SD, n = 10, untreated 1.84±0.78, 5-FU p<0.01), the Lymphocytes is given as 0.83±0.22 ** ×10^3/µl. Besides, the Leukocytes in [1] (HB-19 5 mg/kg or 5-FU 40 mg/kg i.p., mean ± SD, n = 10, untreated 3.05±1.29, 5-FU p<0.05) was 1.73±0.37 * ×10^3/µl. In addition, the Erythrocytes in data set [1] (HB-19 5 mg/kg or 5-FU 40 mg/kg i.p., mean ± SD, n = 10, untreated 8.73±0.26, 5-FU p<0.0001) is reported as 7.60±0.30*** ×10^6/µl. In [1] (HB-19 5 mg/kg or 5-FU 40 mg/kg i.p., mean ± SD, n = 10, untreated 1041±91), the Platelets is reported as 1042±59 ×10^3/µl. Besides, the “inhibition of tumor growth” value in data set [2] came out at 66%. In addition, the “inhibition of tumor vascularization” value in data set [3] is “significantly inhibited tumor vascularization”.

As to “H2NLys-Lys-Lys-Gly-Pro-Lys-Glu-Lys-βAla-Lys(Btn)-βAlaCONH2 [HB-19/Btn, biotinylated HB-19 for recovery of surface nucleolin]”, the “concentration of maximum binding to surface nucleolin” value in data set [4] and in data set [5] was 8 to 12 µM each time.

On to `CC/C(=C(\c1ccccc1)c1ccc(OCCN(C)C)cc1)c1ccccc1` [tamoxifen, reference compound], for which the “reduction of tumor mass” value in data set [6] was 80%.

With endostatin, the internalization result in [7] was “binds nucleolin on the surface of endothelial cells before translocation to the nucleus”. In addition, in data set [8], the “heparan sulfate proteoglycan requirement of binding to surface nucleolin” value is “endostatin but not HB-19 binding to surface nucleolin requires heparan sulfate proteoglycans”. The “direct effect on tumor cell growth” value in [9] is on record as “does not directly affect tumor cell growth”. In addition, the “phosphorylation of nuclear nucleolin” value in data set [10] is “inhibits phosphorylation of nuclear nucleolin”.
